Reference: patent US20100056526A1, “HETEROMONOCYCLIC COMPOUND AND USE THEREOF” (Takeda Pharmaceutical Company Limited, priority 2006, published 2010)
Structures can show the parent of a compound that is named as a salt. Where two headings read alike, the source gives them in different places.

How the values were obtained:
[1] = molecular target: T1, human AT1 receptor (Homo sapiens, UniProt P30556); assay: Binding assay using human AT1 receptor-expressing CHO-K1 cell membrane fraction ([125I]-angiotensin II); conditions: 22.5 pM [125I]-angiotensin II, 9 μg AT1 membrane, 1 hr room temperature; read-out: AT1 receptor binding inhibitory action (IC50 (nM))
T1 construct: expressed in transfected cells; host or cells: CHO-K1
T1 sequence (P30556 1-359): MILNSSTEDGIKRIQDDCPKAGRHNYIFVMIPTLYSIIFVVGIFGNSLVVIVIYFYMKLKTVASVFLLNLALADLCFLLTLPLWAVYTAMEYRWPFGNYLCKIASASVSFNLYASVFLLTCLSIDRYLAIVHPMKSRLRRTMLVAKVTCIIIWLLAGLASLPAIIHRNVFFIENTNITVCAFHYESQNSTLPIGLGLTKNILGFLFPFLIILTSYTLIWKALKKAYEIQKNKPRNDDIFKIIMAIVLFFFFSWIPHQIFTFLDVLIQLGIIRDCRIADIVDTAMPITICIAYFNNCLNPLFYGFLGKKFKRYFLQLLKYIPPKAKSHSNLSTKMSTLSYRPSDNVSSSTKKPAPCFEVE
In short: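 CHO-K1 membranes stably expressing AT1 (9 μg) incubated with 22.5 pM [125I]-angiotensin II and compound in 50 mM Tris pH 7.4, 10 mM MgCl2, with or without 0.3 mg/mL fatty acid-free BSA, 1 hr at room temperature. Bound radioactivity counted after GF/C filtration; nonspecific binding with 1 μM CV-11974; IC50 calculated.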

[2] = molecular target: T2, PPARγ (Homo sapiens, UniProt P37231); assay: Evaluation of PPARγ activating action (luciferase reporter in PPARγ:RXRα:4ERPP/CHO-K1 cells); format: cell-based; conditions: CHO-K1, 24 h, read-out: PPARγ activating action (activation % (10^−6 M))
T2 construct: expressed in transfected cells; host or cells: CHO-K1
T2 sequence (P37231 1-477 isoform P37231-2): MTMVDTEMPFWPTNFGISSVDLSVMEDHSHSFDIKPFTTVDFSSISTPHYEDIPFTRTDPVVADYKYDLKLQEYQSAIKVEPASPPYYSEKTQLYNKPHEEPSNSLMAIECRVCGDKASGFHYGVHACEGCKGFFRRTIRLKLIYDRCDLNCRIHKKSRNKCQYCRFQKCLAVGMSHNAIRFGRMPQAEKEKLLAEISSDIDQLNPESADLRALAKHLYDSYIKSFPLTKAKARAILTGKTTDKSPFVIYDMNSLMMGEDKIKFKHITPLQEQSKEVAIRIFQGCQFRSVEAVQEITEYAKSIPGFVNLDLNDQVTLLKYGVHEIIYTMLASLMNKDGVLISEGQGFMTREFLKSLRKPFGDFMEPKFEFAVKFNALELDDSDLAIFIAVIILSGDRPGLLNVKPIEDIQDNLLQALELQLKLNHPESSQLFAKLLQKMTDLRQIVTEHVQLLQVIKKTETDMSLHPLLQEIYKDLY
T2 sequence (P19793 1-462 partner): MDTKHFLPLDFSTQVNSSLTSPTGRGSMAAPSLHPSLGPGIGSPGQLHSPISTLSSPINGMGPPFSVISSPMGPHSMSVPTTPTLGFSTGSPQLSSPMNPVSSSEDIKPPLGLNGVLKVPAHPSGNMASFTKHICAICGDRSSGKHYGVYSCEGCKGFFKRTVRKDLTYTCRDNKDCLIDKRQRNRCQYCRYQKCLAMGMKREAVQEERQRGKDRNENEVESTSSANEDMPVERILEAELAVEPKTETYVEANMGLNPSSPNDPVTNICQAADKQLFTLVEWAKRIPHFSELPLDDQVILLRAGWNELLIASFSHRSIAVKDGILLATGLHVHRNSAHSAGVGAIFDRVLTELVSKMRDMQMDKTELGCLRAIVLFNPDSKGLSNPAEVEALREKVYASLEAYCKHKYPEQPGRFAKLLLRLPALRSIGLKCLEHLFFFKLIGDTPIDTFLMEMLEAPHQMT
In short: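 CHO-K1 cells stably carrying PPARγ, RXRα and a 4ERPP luciferase reporter were treated with compound for 1 day at 37 °C in F12 medium with 0.1% fatty acid-free BSA. Luciferase activity was read and scaled between no compound (0%) and reference agonist compound X at 1 μM (100%).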

[3] = test compound 10^−6 M, luciferase activity relative to control compound X (1 μM) = 100%, non-administration group = 0%

Structure (SMILES)	IC50 [1] [nM]	activation at 1 µM [2, 3] [%]	activation at 1 µM [2] [%]
CCCc1nc(CC)c(Oc2ccc3c(c2)OCO3)c(=O)n1Cc1ccc(-c2ccccc2-c2noc(O)n2)cc1 [Example 485, 5-(1,3-benzodioxol-5-yloxy)-6-ethyl-3-{[2′-(5-oxo-4,5-dihydro-1,2,4-oxadiazol-3-yl)biphenyl-4-yl]methyl}-2-propylpyrimidin-4(3H)-one]	2	23.5	
CCCc1nc(CC)c(Oc2cccc(OC)c2)c(=O)n1Cc1ccc(-c2ccccc2-c2noc(O)n2)cc1 [Example 488, 6-ethyl-5-(3-methoxyphenoxy)-3-{[2′-(5-oxo-4,5-dihydro-1,2,4-oxadiazol-3-yl)biphenyl-4-yl]methyl}-2-propylpyrimidin-4(3H)-one potassium salt]	1.9		16.7
CCCc1nc(CC)c(-c2ccc(OCC3CC3)nc2)c(=O)n1Cc1ccc(-c2ccccc2-c2noc(=O)[nH]2)cc1 [Example 500, 5-[6-(cyclopropylmethoxy)pyridin-3-yl]-6-ethyl-3-{[2′-(5-oxo-4,5-dihydro-1,2,4-oxadiazol-3-yl)biphenyl-4-yl]methyl}-2-propylpyrimidin-4(3H)-one]	2.7	35.9	
CCCc1nc(C)c(-c2ccc(OCC3CC3)nc2)c(=O)n1Cc1ccc(-c2ccccc2-c2noc(=O)[nH]2)cc1F [Example 501, 5-[6-(cyclopropylmethoxy)pyridin-3-yl]-3-{[3-fluoro-2′-(5-oxo-4,5-dihydro-1,2,4-oxadiazol-3-yl)biphenyl-4-yl]methyl}-6-methyl-2-propylpyrimidin-4(3H)-one]	2.6	31.8	
CCCc1nc(CC)c(-c2ccc(OCC)nc2)c(=O)n1Cc1ccc(-c2ccccc2-c2noc(O)n2)cc1 [Example 507, 5-(6-ethoxypyridin-3-yl)-6-ethyl-3-{[2′-(5-oxo-4,5-dihydro-1,2,4-oxadiazol-3-yl)biphenyl-4-yl]methyl}-2-propylpyrimidin-4(3H)-one]	2.2	32.4	
CCCc1nc(C)c(-c2ccc(OC(C)(C)CO)cc2)c(=O)n1Cc1ccc(-c2ccccc2-c2noc(=O)[nH]2)cc1F [Example 509, 3-{[3-fluoro-2′-(5-oxo-4,5-dihydro-1,2,4-oxadiazol-3-yl)biphenyl-4-yl]methyl}-5-[4-(2-hydroxy-1,1-dimethylethoxy)phenyl]-6-methyl-2-propylpyrimidin-4(3H)-one]	1.2	16.2	
CCCCc1nc(C2CC2)c(-c2ccc(OC(C)(C)CO)cc2)c(=O)n1Cc1ccc(-c2ccccc2-c2noc(O)n2)cc1 [Example 510, 2-butyl-6-cyclopropyl-5-[4-(2-hydroxy-1,1-dimethylethoxy)phenyl]-3-{[2′-(5-oxo-4,5-dihydro-1,2,4-oxadiazol-3-yl)biphenyl-4-yl]methyl}pyrimidin-4(3H)-one]	2.3	24.4	
CCCc1nc(CC)c(-c2ccc(OC(C)(C)CO)cc2)c(=O)n1Cc1ccc(-c2ccccc2-c2noc(=O)[nH]2)cc1F [Example 511, 6-ethyl-3-{[3-fluoro-2′-(5-oxo-4,5-dihydro-1,2,4-oxadiazol-3-yl)biphenyl-4-yl]methyl}-5-[4-(2-hydroxy-1,1-dimethylethoxy)phenyl]-2-propylpyrimidin-4(3H)-one]	1.3	31	
CCCc1nc(CC)c(-c2ccc(OC(C)(C)CO)cc2)c(=O)n1Cc1ccc(-c2ccccc2-c2noc(O)n2)cc1 [Example 512, 6-ethyl-5-[4-(2-hydroxy-1,1-dimethylethoxy)phenyl]-3-{[2′-(5-oxo-4,5-dihydro-1,2,4-oxadiazol-3-yl)biphenyl-4-yl]methyl}-2-propylpyrimidin-4(3H)-one]	1.3	20.3	
